Laboratory results from patent US9067928B2 (Genentech, Inc., priority 2008, dated 2015).

Assays:
[1] = test system: Mcl-1-/- mouse embryonic fibroblasts (MEF); experiment: Cell viability assay for Mcl-1-/- mouse embryonic fibroblasts (CellTiter-Glo); format: cell-based; conditions: Fibroblast, 1% Fetal Bovine Serum, read-out: MEF Mcl-1-/- KO cell viability results (EC50)
Description: a. Cell Viability Assay for Mcl-1^−/− Mouse Embryonic Fibroblasts (MEF):
Neutralization of both […] and Mcl-1 anti-apoptotic proteins in normal cells is required before a cell undergoes apoptosis via the downstream Bax/Bak pathway See, Chen. L. et al. Mol. Cell (2005) 17, 393-403; Willis, S. N. et al. Genes Dev. (2005) 19, 1294-1305. A compound that only targets Bcl-xL should not affect normal cells, but could kill certain cancer cells if they rely more on Bcl-xL and less on other anti-apoptotic proteins, e.g. Mcl-1, for survival. To mirror this, compounds of the invention were tested for its effect on survival of wild type (wt) mouse embryo fibroblasts (MEFs), Bax/Bak double knockout (BB DKO) MEFs, MEFs that expressed Noxa, and MEFs that expressed Bad. Noxa specifically neutralizes Mcl-1. […] MEFs that express Noxa mirror cancer cell types that are reliant on Bcl-xL for survival and should be much more sensitive to killing by a Bcl-xL targeting compound than MEFs where both Bcl-xL and Mcl-1 are protective.
In this assay, Mcl-1^(−/−) cells were used to confirm that cell apoptosis in the presence of BH3 mimetic small molecules was due to predominantly Bcl-xL inactivation. This inactivation leaves Bax/Bak unconstrained and results in apoptosis. The […]-GLO Luminescent Cell Viability Assay is a homogeneous method of determining the number of viable cells in culture based on quantitation of the ATP present. The amount of ATP correlates with the presence of metabolically active cells such that following cell lysis the amount of ATP present is proportional to the amount of luminescence measured.
Mcl-1^(−/−) mouse embryonic fibroblasts (MEFs) are an adherent cell line prepared in house. MEFs were grown in Iwaki 75 cm^2 tissue culture flasks (cat #3123-075) with FMA media which consists of: • 89% DME Kelso • 10% heat-inactivated foetal calf serum (FCS) (Hyclone cat #SH30396.03) • 1% 10 mM asparagine (Fluka cat #11149) • 275 μl of a 1:2000 dilution of 2-mercaptoethanol is added to the final 500 ml volume of FMA (Sigma cat #M7522; diluted in MT-PBS)
FMA was stored at 4° C. and used at 37° C. MEFs were cultured in FMA media and harvested in MT-PBS and trypsin. For MEF cell viability assays, cells were seeded separately in plates with 10% FCS-FMA and 1% FCS-FMA. […]
Automated Systems that can be used in this assay include: 1) Multidrop—The MULTIDROP 384 (ThermoLabsystems) dispenser was used to dispense cells aseptically into the assay plates: 2) MiniTrak—The […] system from Perkin Elmer was used for titration of the compound plates; 3) Zymark—The ZYMARK SCICLONE ALH3000 System with 100 nL pintool head was used for compound addition to the cells; 4) EnVision—The ENVISION plate reader was used to measure the viability via the detection of the luminescence. […]

Bcl-2 = biological target: T1, Bcl-2 (Homo sapiens, UniProt P10415); experiment: TR-FRET binding assay, competition with F-Bak for Bcl-2 binding site; conditions: GST-Bcl-2, F-Bak probe
T1 construct: made in house
Method: (§1) Test compounds were serially diluted in DMSO starting at 50 μM (2× starting concentration; 10% DMSO) and 10 μL transferred into a 384-well plate.
(§2) The samples are then mixed on a shaker for 1 minute then incubated for an additional 2 hours at room temperature. For each assay plate, a probe/antibody and protein/antibody/probe mixture were included as a negative and a positive control, respectively. Fluorescence was measured on the Envision (Perkin Elmer) using a 340/35 nm excitation filter and 520/525 (F-Bak) and 495/510 nm (Tb-labeled anti-his antibody) emission filters. Dissociation constants (Ki) were determined using Wang's equation (see, Wang, Z. X. An exact mathematical expression for describing competitive binding of two different ligands to a protein molecule. FEBS Lett. 1995 360:111-114). The TR-FRET assay can be performed in the presence of varying concentrations of human serum (HS) or fetal bovine serum (FBS).
For comparison, the measurement of the competition of compounds of the invention for other Bcl-2 family protein binding sites (e.g., Bcl-2, Mcl-1) using the TR-FRET binding assay was accomplish by substituting GST-Bcl-xL in the TR-FRET assay with other GST-labeled protein, e.g. GST-Bcl-2, GST-Mcl-1 prepared in-house.
For comparison, data (Ki in micromolar) from the measurement of the competition by certain compounds of the invention (i.e., compounds 1, 28, 38, 63, 71, 75, 80, 81, 92 and 94 in Table 1) with F-Bak for the Bcl-2 binding site using the TR-FRET binding assay are, 1.2, 0.15, 0.01, 0.018, 0.50, 0.272, 0.167, 0.66, 0.23 and 0.000003 respectively.

Bcl-xL = biological target: T2, Bcl-xL (Homo sapiens, UniProt Q07817); experiment: TR-FRET binding assay, competition with F-Bak for Bcl-xL binding site; conditions: GST-Bcl-xL, F-Bak probe
T2 construct: made in house
Method: The measurement of competition of compounds of the invention with F-Bak for a Bcl-2 family protein (Bcl-xL) binding site using a Time Resolved Fluorescence Resonance Energy Transfer (TR-FRET) Binding Assay:
as §1, §2

T1 sequence (P10415 whole entry, species assumed): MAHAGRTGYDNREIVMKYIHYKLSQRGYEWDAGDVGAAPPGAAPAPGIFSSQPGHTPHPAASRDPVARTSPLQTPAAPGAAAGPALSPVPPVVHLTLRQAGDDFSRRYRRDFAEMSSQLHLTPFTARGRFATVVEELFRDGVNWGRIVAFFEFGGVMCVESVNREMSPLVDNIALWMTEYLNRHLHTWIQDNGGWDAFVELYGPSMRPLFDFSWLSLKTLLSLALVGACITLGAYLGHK
T2 sequence (Q07817 whole entry, species assumed): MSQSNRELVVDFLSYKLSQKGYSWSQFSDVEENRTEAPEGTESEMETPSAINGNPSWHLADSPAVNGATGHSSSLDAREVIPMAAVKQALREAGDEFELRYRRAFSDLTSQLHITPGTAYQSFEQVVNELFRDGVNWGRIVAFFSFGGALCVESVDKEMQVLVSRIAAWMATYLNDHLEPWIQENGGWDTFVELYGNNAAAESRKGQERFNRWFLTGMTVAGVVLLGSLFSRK

SMILES: O=C(O)c1nc(-c2ccc3c(c2)N(C(=O)Nc2nc4ccccc4s2)CCC3)sc1-c1ccc(-c2ccccc2)cc1 [Example 92, 2-(1-(benzo[d]thiazol-2-ylcarbamoyl)-1,2,3,4-tetrahydroquinolin-7-yl)-5-(biphenyl-4-yl)thiazole-4-carboxylic acid]
- EC50 [1]: 150 nM
- Ki (Bcl-2): 230 nM
- Ki (Bcl-xL): 0.5 nM
